Assay results as given in ChEMBL document CHEMBL3102731, “Structure-activity relationship studies and biological characterization of human NAD(+)-dependent 15-hydroxyprostaglandin dehydrogenase inhibitors” (Bioorg Med Chem Lett, 2014).
pIC50: −log10 of the molar value.

Tests used:
[1] = target: T1, 15-hydroxyprostaglandin dehydrogenase [NAD(+)] (Homo sapiens, UniProt P15428); experiment: Inhibition of human HPGD using PGE2 as substrate after 15 mins by fluorescence assay
T1 sequence (P15428 whole entry): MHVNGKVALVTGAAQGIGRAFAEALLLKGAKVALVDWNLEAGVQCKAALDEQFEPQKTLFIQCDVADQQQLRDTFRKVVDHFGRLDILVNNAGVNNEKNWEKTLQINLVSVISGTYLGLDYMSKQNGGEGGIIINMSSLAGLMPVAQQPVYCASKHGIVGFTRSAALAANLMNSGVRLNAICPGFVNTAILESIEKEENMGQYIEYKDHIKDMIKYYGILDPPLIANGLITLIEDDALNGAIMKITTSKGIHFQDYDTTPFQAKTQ

[2] = target: L-lactate dehydrogenase A chain (Homo sapiens, UniProt P00338); experiment: Inhibition of LDHA (unknown origin) using sodium pyruvate as substrate at 0.46 to 57.5 uM after 15 mins by fluorescence assay
[3] = Passive permeability of the compound at pH 7.4 by PAMPA; assay type: ADME
LNCaP [4] = experiment: Induction of PGE2 production in human LNCAP cells assessed as half-maximal activation concentration after 16 hrs by HTRF assay; assay type: functional, cell-based
[5] = target: L-lactate dehydrogenase B chain (Homo sapiens, UniProt P07195); experiment: Inhibition of LDHB (unknown origin) using sodium pyruvate as substrate at 0.46 to 57.5 uM after 15 mins by fluorescence assay
Liver microsome = experiment: Half life in rat liver microsomes in presence of NADPH; assay type: ADME
[6] = target: Glyceraldehyde-3-phosphate dehydrogenase (Oryctolagus cuniculus, UniProt P46406); experiment: Inhibition of rabbit muscle GAPDH using glyceraldehyde-3-phosphate as substrate at 324 pM to 57.2 uM by fluorescence assay
A549 [7] = experiment: Induction of PGE2 production in human A549 cells at 775 pM to 45.8 uM after 4 to 20 hrs by HTRF assay relative to control; assay type: functional
[8] = target: T2, Aldehyde dehydrogenase 1A1 (Homo sapiens, UniProt P00352); experiment: Inhibition of ALDH1A1 (unknown origin) using NAD+/propionaldehyde as substrate after 15 mins by UV-fluorescence assay
T2 sequence (P00352 whole entry): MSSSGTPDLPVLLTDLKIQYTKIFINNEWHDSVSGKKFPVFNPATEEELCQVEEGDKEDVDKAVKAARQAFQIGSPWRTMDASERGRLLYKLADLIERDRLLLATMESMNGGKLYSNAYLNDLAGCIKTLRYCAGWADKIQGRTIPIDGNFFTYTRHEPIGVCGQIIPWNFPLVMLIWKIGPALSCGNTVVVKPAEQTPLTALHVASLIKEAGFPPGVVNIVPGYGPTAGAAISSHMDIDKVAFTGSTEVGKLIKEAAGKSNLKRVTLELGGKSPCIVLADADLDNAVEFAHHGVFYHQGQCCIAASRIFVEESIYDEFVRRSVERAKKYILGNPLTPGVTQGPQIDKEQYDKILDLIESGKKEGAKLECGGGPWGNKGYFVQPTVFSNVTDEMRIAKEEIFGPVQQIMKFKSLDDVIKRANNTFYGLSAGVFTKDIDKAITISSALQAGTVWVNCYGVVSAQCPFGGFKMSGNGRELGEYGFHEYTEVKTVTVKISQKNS

[9] = target: T3, Peroxisomal multifunctional enzyme type 2 (Homo sapiens, UniProt P51659); experiment: Inhibition of HSD17beta4 (unknown origin) using NAD+/estradiol as substrate at 324 pM to 57.2 uM after 15 mins by UV-fluorescence assay
T3 sequence (P51659 whole entry): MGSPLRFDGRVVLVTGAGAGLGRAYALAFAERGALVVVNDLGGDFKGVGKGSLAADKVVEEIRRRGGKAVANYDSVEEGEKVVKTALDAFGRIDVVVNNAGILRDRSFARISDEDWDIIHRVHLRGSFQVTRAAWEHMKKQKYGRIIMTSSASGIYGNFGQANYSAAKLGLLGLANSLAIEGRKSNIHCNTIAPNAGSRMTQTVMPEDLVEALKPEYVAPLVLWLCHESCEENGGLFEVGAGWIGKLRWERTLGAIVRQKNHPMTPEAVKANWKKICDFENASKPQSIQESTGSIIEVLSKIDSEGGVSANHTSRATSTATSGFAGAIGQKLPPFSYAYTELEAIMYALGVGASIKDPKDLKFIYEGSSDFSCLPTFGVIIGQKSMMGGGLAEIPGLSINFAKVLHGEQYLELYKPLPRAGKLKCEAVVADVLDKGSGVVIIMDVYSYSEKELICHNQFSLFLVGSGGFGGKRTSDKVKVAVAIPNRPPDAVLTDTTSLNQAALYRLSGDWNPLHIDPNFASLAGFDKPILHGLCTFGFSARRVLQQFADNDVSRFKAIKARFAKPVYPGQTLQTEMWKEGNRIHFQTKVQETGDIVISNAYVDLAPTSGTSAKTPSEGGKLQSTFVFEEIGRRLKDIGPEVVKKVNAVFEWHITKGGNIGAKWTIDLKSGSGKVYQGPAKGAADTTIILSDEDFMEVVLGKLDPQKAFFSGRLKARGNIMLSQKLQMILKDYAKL

[10] = Kinetic solubility of the compound in PBS buffer at pH 7.4; assay type: physicochemical
LNCaP [11] = experiment: Induction of PGE2 production in human LNCAP cells at 41.9 nM to 100 uM after 16 hrs by HTRF assay relative to control; assay type: functional
A549 [12] = experiment: Induction of PGE2 production in human A549 cells assessed as concentration required for half-maximal activation after 4 to 20 hrs by HTRF assay; assay type: functional, cell-based

L-lactate dehydrogenase B chain, sequence (P07195 whole entry): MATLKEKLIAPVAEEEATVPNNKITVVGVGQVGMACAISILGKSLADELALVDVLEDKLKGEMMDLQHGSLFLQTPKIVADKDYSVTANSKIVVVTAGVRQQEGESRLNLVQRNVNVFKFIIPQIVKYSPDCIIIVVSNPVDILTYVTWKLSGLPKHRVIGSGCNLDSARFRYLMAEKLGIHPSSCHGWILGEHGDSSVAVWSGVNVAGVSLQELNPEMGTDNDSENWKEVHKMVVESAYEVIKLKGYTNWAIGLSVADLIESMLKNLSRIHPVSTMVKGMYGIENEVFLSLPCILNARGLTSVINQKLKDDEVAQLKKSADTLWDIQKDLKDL
Glyceraldehyde-3-phosphate dehydrogenase, sequence (P46406 whole entry): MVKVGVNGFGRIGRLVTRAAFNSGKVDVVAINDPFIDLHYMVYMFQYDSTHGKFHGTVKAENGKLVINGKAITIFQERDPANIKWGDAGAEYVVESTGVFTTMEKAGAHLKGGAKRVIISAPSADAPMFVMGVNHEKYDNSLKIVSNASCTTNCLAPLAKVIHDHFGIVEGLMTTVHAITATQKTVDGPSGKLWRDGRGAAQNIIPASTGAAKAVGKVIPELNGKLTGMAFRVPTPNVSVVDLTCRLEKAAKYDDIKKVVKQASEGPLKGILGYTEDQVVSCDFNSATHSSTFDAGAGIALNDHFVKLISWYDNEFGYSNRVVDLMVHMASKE

c1ccc(-n2ccc(-c3nnc4n3CCCCC4)n2)cc1
pIC50 [1]: 5.42

CC(C)c1cccc(-n2cnc3cc(C(=O)N4CCCCC4)ccc32)c1
pIC50 [1]: 7.17

O=C(c1ccc2c(c1)ncn2-c1cccc(Cl)c1)N1CCCCC1
IC50 [2]: Not Active
pIC50 [1]: 7.92
permeability [3]: 895 ×10⁻⁶ cm/s
AC50 (LNCaP [4]): 222 nM
IC50 [5]: Not Active
t1/2 (Liver microsome): 6.4 min
IC50 [6]: Not Active
Activity (A549 [7]): 170%
pIC50 [8]: 5.72
IC50 [9]: Not Active
Kinetic_solubility [10]: > 50 µM
Activity (LNCaP [11]): 85%

Cc1cccc(-n2cnc3cc(C(=O)N4CCCC(c5ccccc5)C4)ccc32)c1 (centres undefined)
pIC50 [1]: 6.37

Cc1cccc(-n2cnc3cc(C(=O)N4CC(C)CC(C)C4)ccc32)c1 (centres undefined)
pIC50 [1]: 6.57

Cc1cc(-c2nnc3n2CCCCC3)c(C)n1-c1ccc(Br)cc1
pIC50 [1]: 7.32

c1ccc(-n2cc(-c3nnc4n3CCCCC4)c3ccccc32)cc1
pIC50 [1]: 6.17

Cc1cccc(-n2cnc3cc(C(=O)N4CCCC(C)(C)C4)ccc32)c1
IC50 [2]: Not Active
AC50 (A549 [12]): 743 nM
pIC50 [1]: 7.17
permeability [3]: 2260 ×10⁻⁶ cm/s
AC50 (LNCaP [4]): 4430 nM
IC50 [5]: Not Active
t1/2 (Liver microsome): 1.8 min
IC50 [6]: Not Active
Activity (A549 [7]): 127%
pIC50 [8]: 5.72
IC50 [9]: Not Active
Kinetic_solubility [10]: 5.6 µM
Activity (LNCaP [11]): 53%

Cc1cc(-c2nnc3n2CCCCC3)c(C)n1-c1cccc(C(F)(F)F)c1
IC50 [2]: Not Active
AC50 (A549 [12]): 2090 nM
pIC50 [1]: 7.32
permeability [3]: 1510 ×10⁻⁶ cm/s
AC50 (LNCaP [4]): 2220 nM
IC50 [5]: Not Active
t1/2 (Liver microsome): 1.9 min
IC50 [6]: Not Active
Activity (A549 [7]): 145%
pIC50 [8]: 5.82
IC50 [9]: Not Active
Kinetic_solubility [10]: 33 µM
Activity (LNCaP [11]): 44%

Cc1ccc(-n2c(C)cc(-c3nnc4n3CCCCC4)c2C)cc1
IC50 [2]: Not Active
AC50 (A549 [12]): 166 nM
pIC50 [1]: 7.47
permeability [3]: 1330 ×10⁻⁶ cm/s
AC50 (LNCaP [4]): 703 nM
IC50 [5]: Not Active
t1/2 (Liver microsome): 1.8 min
IC50 [6]: Not Active
Activity (A549 [7]): 107%
pIC50 [8]: 5.62
IC50 [9]: Not Active
Kinetic_solubility [10]: 28 µM
Activity (LNCaP [11]): 71%

Cc1cc(-c2nnc3n2CCCCC3)c(C)n1-c1cccc(C#N)c1
IC50 [2]: Not Active
AC50 (A549 [12]): 2640 nM
pIC50 [1]: 7.12
permeability [3]: 229 ×10⁻⁶ cm/s
AC50 (LNCaP [4]): 1770 nM
IC50 [5]: Not Active
t1/2 (Liver microsome): 8.1 min
IC50 [6]: Not Active
Activity (A549 [7]): 350%
pIC50 [8]: 5.17
IC50 [9]: Not Active
Kinetic_solubility [10]: > 49 µM
Activity (LNCaP [11]): 63%

Cc1cc(-c2nnc3n2CCCCC3)c(C)n1-c1ccccn1
pIC50 [1]: 5.97

Cc1cc(-c2nnc3n2CCCCC3)c(C)n1-c1ccncc1
pIC50 [1]: 6.42

Cc1cc(-c2nnc3n2CCCCC3)c(C)n1-c1ccc(C(F)(F)F)cc1
pIC50 [1]: 7.17

Cc1cc(-c2nnc3n2CCCCC3)c(C)n1-c1ccc(C(C)(C)C)cc1
pIC50 [1]: 6.87

Cc1cc(-c2nnc3n2CCCC3)c(C)n1-c1ccccc1
pIC50 [1]: 6.72

COc1cccc(-n2cnc3cc(C(=O)N4CCCCC4)ccc32)c1
pIC50 [1]: 7.72

CCOC(=O)c1ccc(-n2c(C)cc(-c3nnc4n3CCCCC4)c2C)cc1
pIC50 [1]: 7.42

Cc1cc(-c2nnc3n2CCCCC3)c(C)n1-c1ccc([N+](=O)[O-])cc1
pIC50 [1]: 6.97

Cc1cc(-c2nnc3n2CCCCCCC3)c(C)n1-c1ccccc1
pIC50 [1]: 6.42

Cc1cccc(-n2cnc3cc(C(=O)N4CCCC(C(C)C)C4)ccc32)c1 (centres undefined)
pIC50 [1]: 7.32

O=C(c1ccc2c(c1)ncn2-c1ccc(C(F)(F)F)cc1)N1CCCCC1
pIC50 [1]: 7.07

Cc1cc(-c2nnc3n2CCCCC3)c(C)n1-c1ccc(F)cc1
pIC50 [1]: 6.92

c1ccc(-n2ccc(-c3nnc4n3CCCCC4)c2)cc1
pIC50 [1]: 6.22

Cc1cc(-c2nnc3n2CCCCCC3)c(C)n1-c1ccccc1
pIC50 [1]: 6.62

Cc1cc(-c2nnc3n2CCC3)c(C)n1-c1ccccc1
pIC50 [1]: 5.52

Cc1cccc(-n2cnc3cc(C(=O)N4CCCCC4)ccc32)c1
AC50 (A549 [12]): 469 nM
pIC50 [1]: 7.72
permeability [3]: 1200 ×10⁻⁶ cm/s
AC50 (LNCaP [4]): 884 nM
t1/2 (Liver microsome): 7.3 min
Activity (A549 [7]): 129%
Kinetic_solubility [10]: > 47 µM
Activity (LNCaP [11]): 62%

Cc1ccc(-n2cnc3cc(C(=O)N4CCCCC4)ccc32)cc1
pIC50 [1]: 7.72

CCCCNC(=O)c1ccc2c(c1)ncn2-c1cccc(C)c1
pIC50 [1]: 5.87

COc1ccc(-n2c(C)cc(-c3nnc4n3CCCCC4)c2C)cc1
pIC50 [1]: 7.07

Cc1cc(-c2nnc3n2CCCCC3)c(C)n1-c1ccccc1
pIC50 [1]: 7.27
permeability [3]: 599 ×10⁻⁶ cm/s
Activity (A549 [7]): 106%
Kinetic_solubility [10]: > 45 µM
Activity (LNCaP [11]): 73%

O=C(c1ccc2c(c1)ncn2-c1ccc(Cl)cc1)N1CCCCC1
pIC50 [1]: 7.66

Cc1cccc(-n2cnc3cc(C(=O)NC4CCCC4)ccc32)c1
pIC50 [1]: 6.02

Cc1cccc(-n2cnc3cc(C(=O)N4CCCC4)ccc32)c1
pIC50 [1]: 6.42

CC(C)(C)c1ccc(-n2cnc3cc(C(=O)N4CCCCC4)ccc32)cc1
pIC50 [1]: 7.27

Cc1cccc(-n2cnc3cc(C(=O)N4CCOCC4)ccc32)c1
pIC50 [1]: 5.52

Cc1cccc(-n2cnc3cc(C(=O)N4CCCC(C)C4)ccc32)c1 (centres undefined)
pIC50 [1]: 7.66

CCCCn1cnc2cc(C(=O)N3CCCCC3)ccc21
pIC50 [1]: 7.17

Cc1cccc(-n2cnc3cc(C(=O)N4CCCC(C(F)(F)F)C4)ccc32)c1 (centres undefined)
pIC50 [1]: 7.17

CC(C)(C)c1cccc(-n2cnc3cc(C(=O)N4CCCCC4)ccc32)c1
pIC50 [1]: 6.77

Cc1cccc(-n2cnc3cc(C(=O)N4CCN(C)CC4)ccc32)c1
pIC50 [1]: 5.57

Cc1cccc(-n2cnc3cc(C(=O)N4CCC(C(F)(F)F)CC4)ccc32)c1
pIC50 [1]: 5.82

COc1ccccc1-n1cnc2cc(C(=O)N3CCCCC3)ccc21
pIC50 [1]: 7.57

Cc1cc(-c2nnc3n2CCCCC3)c(C)n1-c1cccnc1
pIC50 [1]: 6.57

Cc1cc(-c2nnc3n2CCCCC3)c(C)n1-c1ccc(C#N)cc1
pIC50 [1]: 7.02

Cc1cc(-c2nnc3n2CCCCC3)c(C)n1-c1cccc2ccccc12
pIC50 [1]: 6.97

Cc1cc(-c2nnc3n2CCCCC3)c(C)n1-c1ccc(Cl)cc1
pIC50 [1]: 7.42

O=C(c1ccc2c(c1)ncn2-c1ccccc1)N1CCCCC1
pIC50 [1]: 7.66

CC(C)(C)n1cnc2cc(C(=O)N3CCCCC3)ccc21
pIC50 [1]: 7.47
